Experimental data taken from US20260193602A1, “CULTURE MEDIUM COMPOSITION” (AJINOMOTO CO., INC., priority 2023, published 2026).

Assays:
[1] = test system: HEK293 (Viral Production Cells 2.0) producing AAV8; assay: Production of AAV in HEK293 in suspension culture system (AAV8 genome titer by real-time PCR, viral particles by ELISA, full capsid ratio); assay type: cell-based, human
[2] = test system: HEK293 2.sus producing Human adenovirus 32; settings: Example 6; CDM4HEK293 with or without β-alanine; MOI 0.1
Protocol: The entire volume is placed in a 50 ml tube, 29 mL of glutamine-containing 293 SFM II is added thereto and the cells are suspended. 5 mL of the cell suspension is placed in a Petri dish and culturing with shaking (50 rpm) is performed in a CO2 incubator (temperature setting: 37° C., CO2 concentration: 5%, model: MCO-170AICUV-PJ, Panasonic Healthcare Co., Ltd.) for 2-3 days. • (4) After culturing, the culture solution is recovered and transferred to a 15 mL centrifuge tube. • (5) Centrifugation is performed for 5 min (1000 rpm, 190×g, 24° C.) and the supernatant is removed. • (6) 1 ML of glutamine-containing 293 SFM II is added to the 15 mL centrifuge tube and the cells are resuspended. The cell number is measured using a hemocytometer and glutamine-containing 293 SFM II is added to 3×10^5 cells/mL. […] The cell number is measured using a hemocytometer and the culture solution is added to 3×10^5 cells/mL. […]

| Structure (SMILES) | AAV8 genome titer (relative) ([1]; Example 4, spermidine trihydrochloride final concentration 30 μM or 100 μM, FIG. 6) | full capsid ratio (relative) ([1]; Example 4, spermidine trihydrochloride final concentration 30 μM or 100 μM, FIG. 7) | AAV8 genome titer (relative) ([1]; Example 5, spermidine trihydrochloride 200 μM alone, FIG. 8) | adenovirus titer [2] | AAV8 genome titer (relative) ([1]; Example 1, β-alanine final concentration 100 μM, vs medium without β-alanine = 100%, FIG. 1) | full capsid ratio (relative) ([1]; Example 1, β-alanine final concentration 100 μM, vs medium without β-alanine = 100%, FIG. 2) | AAV8 genome titer (relative) ([1]; Example 2, β-alanine final concentration 100 μM, FIG. 3) | AAV8 genome titer (relative) ([1]; Example 2, β-alanine final concentration 300 μM, FIG. 3) | virus count (capsid count (relative)) ([1]; Example 3, β-alanine final concentration 300 μM, FIG. 4) | full capsid ratio (relative) ([1]; Example 3, β-alanine final concentration 300 μM, FIG. 5) | AAV8 genome titer (relative) ([1]; Example 5, β-alanine 300 μM alone, FIG. 8) |
| --- | --- | --- | --- | --- | --- | --- | --- | --- | --- | --- | --- |
| Cl.Cl.Cl.NCCCCNCCCN [spermidine trihydrochloride] | improvements | improvements | improved | – | – | – | – | – | – | – | – |
| NCCC(=O)O [β-alanine] | – | – | – | Improvement | improvements | improvements | improvement | improvement | increase | improvement | improved |
